This is an account of results in ChEMBL document CHEMBL1153831, “Azithromycin blocks quorum sensing and alginate polymer formation and increases the sensitivity to serum and stationary-growth-phase killing of Pseudomonas aeruginosa and attenuates chronic P. aeruginosa lung infection in Cftr(-/-) mice” (Antimicrob Agents Chemother, 2007).

Active and inactive are the calls of the source. The rule behind the calls is not given here.

In data set [1] the test system is Pseudomonas aeruginosa. Nature of the data set: Antimicrobial activity against quorum sensing lasI-deficient isogenic Pseudomonas aeruginosa NH57388D mucoid isolate assessed as reduction of viable count at 12 ug/mL in presence of 2.5% human normal serum. In kind it is functional.
Data set [2] has as its system Pseudomonas aeruginosa. Nature of the data set: Antimicrobial activity against Pseudomonas aeruginosa NH57388A mucoid isolate assessed as reduction of viable count in exponential phase at 256 ug/mL after 8 hrs. In kind it is functional.
A short description of data set [3]: Drug level in Cftr-tml-Unc-TgN(FABPCFTR) cystic fibrosis mouse serum at 500 mg/kg, po after 4 hrs. The data set is classed as ADME, organism-based. Also on record: dose 500 mg/kg, route oral. The note with it: read-out: Drug uptake.
Data set [4] relates to Pseudomonas aeruginosa. The data set can be described thus: Inhibition of quorum sensing-regulated chitinase production in Pseudomonas aeruginosa NH57388A mucoid isolate harboring GFP-fused […] lasB gene assessed as enzyme activity per cell at 4 ug/mL after 24 hrs relative to control. The data set is classed as functional.
Data set [5] relates to Pseudomonas aeruginosa. Nature of the data set: Inhibition of alginate synthesis in Pseudomonas aeruginosa NH57388A mucoid isolate supernatant assessed as uronic acid concentration in outside of dialysis bag after equilibrium dialysis at 12 ug/mL after 24 hrs by carbazole-borate assay. In kind it is functional. Background: In equilibrium dialysis only unbound substance equilibrates across the membrane.

Data set [6] relates to Pseudomonas aeruginosa. Nature of the data set: Antimicrobial activity against quorum sensing lasI-deficient isogenic Pseudomonas aeruginosa NH57388D mucoid isolate assessed as reduction of viable count at 12 ug/mL in absence of 2.5% human normal serum. The data set is classed as functional.
Data set [7] relates to Pseudomonas aeruginosa. Nature of the data set: Inhibition of quorum sensing-regulated elastase production in Pseudomonas aeruginosa NH57388A mucoid isolate harboring GFP-fused […] lasB gene assessed as enzyme activity per cell at 4 ug/mL after 24 hrs relative to control. In kind it is functional.
Data set [8] concerns Pseudomonas aeruginosa. The data set can be described thus: Antimicrobial activity in Pseudomonas aeruginosa NH57388A mucoid isolate harboring GFP-fused avian sarcoma virus lasB gene infected in ftr-tml-Unc-TgN(FABPCFTR) cystic fibrosis mouse assessed as frequency of lung abscesses at 500 mg/kg, po administered 24 hrs after infection daily once for 5 days measured after 7 days postinfection. In kind it is functional.

Data set [9] has as its system Pseudomonas aeruginosa. The data set can be described thus: Antimicrobial activity in Pseudomonas aeruginosa NH57388A mucoid isolate harboring GFP-fused avian sarcoma virus lasB gene infected in ftr-tml-Unc-TgN(FABPCFTR) cystic fibrosis mouse lung assessed as scattered residues of alginate without bacteria at 500 mg/kg, po administered 24 hrs after infection daily once for 5 days measured after 7 days postinfection by histopathology. In kind it is functional, organism-based. Details: dose 500 mg/kg.

In data set [10] the test system is Pseudomonas aeruginosa. The data set can be described thus: Inhibition of alginate synthesis in Pseudomonas aeruginosa NH57388A mucoid isolate supernatant assessed as uronic acid fraction out of the dialysis bag of total amount of uronic acids after exhaustive dialysis at 12 ug/mL after 24 hrs by carbazole-borate assay. In kind it is functional. Details: scale not given: the % may be the effect or the level left.

The subject of data set [11] is Pseudomonas aeruginosa. Nature of the data set: Inhibition of quorum sensing-regulated alginate production in Pseudomonas aeruginosa NH57388A mucoid isolate harboring GFP-fused […] lasB gene assessed as enzyme activity per cell at 4 ug/mL after 24 hrs relative to control. In kind it is functional.
Data set [12] concerns Pseudomonas aeruginosa. The data set can be described thus: Antimicrobial activity against Pseudomonas aeruginosa NH57388A mucoid isolate expressing quorum sensing lasI assessed as reduction of viable count at 12 ug/mL in absence of 2.5% human normal serum. In kind it is functional.
Data set [13] deals with Pseudomonas aeruginosa. The data set can be described thus: Inhibition of quorum sensing-regulated pyocyanin production in Pseudomonas aeruginosa NH57388A mucoid isolate harboring GFP-fused […] lasB gene assessed as enzyme activity per cell at 4 ug/mL after 24 hrs relative to control. The data set is classed as functional.
In data set [14] the test system is Pseudomonas aeruginosa. Nature of the data set: Inhibition of alginate synthesis in Pseudomonas aeruginosa NH57388A mucoid isolate supernatant assessed as uronic acid fraction out of the dialysis bag of total amount of uronic acids after equilibrium dialysis at 12 ug/mL after 24 hrs by carbazole-borate assay. In kind it is functional. Details: scale not given: the % may be the effect or the level left.

Data set [15] relates to Pseudomonas aeruginosa. The data set can be described thus: Inhibition of quorum sensing-regulated alginate production in Pseudomonas aeruginosa NH57388A mucoid isolate harboring GFP-fused […] lasB gene assessed as enzyme activity per cell at 2 ug/mL after 24 hrs relative to control. In kind it is functional.
The species named for another data set is Mus musculus. Nature of the data set: Elimination half life in healthy mouse. In kind it is ADME, organism-based. The note with it: in vivo.
Data set [16] has as its system Pseudomonas aeruginosa. The data set can be described thus: Antimicrobial activity against Pseudomonas aeruginosa NH57388A mucoid isolate after overnight incubation by E-test. The data set is classed as functional.
Data set [17] has as its system Pseudomonas aeruginosa. Nature of the data set: Antimicrobial activity against Pseudomonas aeruginosa NH57388C nonmucoid isolate expressing quorum sensing lasI assessed as reduction of viable count at 12 ug/mL in presence of 2.5% human normal serum. The data set is classed as functional.
The subject of data set [18] is Pseudomonas aeruginosa. Nature of the data set: Inhibition of quorum sensing-regulated elastase production in Pseudomonas aeruginosa NH57388A mucoid isolate harboring GFP-fused […] lasB gene assessed as enzyme activity per cell at 8 ug/mL after 24 hrs relative to control. In kind it is functional.
Data set [19] can be described thus: Drug level in Cftr-tml-Unc-TgN(FABPCFTR) cystic fibrosis mouse serum at 500 mg/kg, po after 1 hr. The data set is classed as ADME, organism-based. Also on record: dose 500 mg/kg, route oral. The note with it: read-out: Drug uptake.
Data set [20] relates to Pseudomonas aeruginosa. The data set can be described thus: Antimicrobial activity against quorum sensing lasI-deficient isogenic Pseudomonas aeruginosa NH57388E nonmucoid isolate assessed as reduction of viable count at 12 ug/mL in absence of 2.5% human normal serum. The data set is classed as functional.
The subject of data set [21] is Pseudomonas aeruginosa. Nature of the data set: Inhibition of quorum sensing-regulated pyocyanin production in Pseudomonas aeruginosa NH57388A mucoid isolate harboring GFP-fused […] lasB gene assessed as enzyme activity per cell at 2 ug/mL after 24 hrs relative to control. In kind it is functional.
Data set [22] concerns Pseudomonas aeruginosa. The data set can be described thus: Antimicrobial activity against Pseudomonas aeruginosa NH57388A mucoid isolate assessed as reduction of viable count in stationary phase at 16 ug/mL after 8 hrs. The data set is classed as functional.
Data set [23] relates to Pseudomonas aeruginosa. The data set can be described thus: Inhibition of quorum sensing-regulated pyocyanin production in Pseudomonas aeruginosa NH57388A mucoid isolate harboring GFP-fused […] lasB gene assessed as enzyme activity per cell at 8 ug/mL after 24 hrs relative to control. In kind it is functional.

As a reminder, the inhibition is the share of the control response that was lost under treatment. Usually MIC stands for the lowest concentration that inhibits growth of the organism. In the case of `CC[C@H]1OC(=O)[C@H](C)[C@@H](O[C@H]2C[C@@](C)(OC)[C@@H](O)[C@H](C)O2)[C@H](C)[C@@H](O[C@@H]2O[C@H](C)C[C@H](N(C)C)[C@H]2O)[C@](C)(O)C[C@@H](C)CN(C)[C@H](C)[C@@H](O)[C@]1(C)O` [AZITHROMYCIN], the CFU in the data set with Pseudomonas aeruginosa [1] came to 8.6 ×10⁵ /ml; in the data set on Pseudomonas aeruginosa [6] it was 55 ×10⁶ /ml; with Pseudomonas aeruginosa [12], 31 ×10⁶ /ml; in the data set on Pseudomonas aeruginosa [17] it was 0 mL; in the data set with Pseudomonas aeruginosa [20], 3.8 ×10⁷ /ml. For the same compound, the Activity was 99% in the data set on Pseudomonas aeruginosa [2]; 143 µg/mL with Pseudomonas aeruginosa [5]; 32% with Pseudomonas aeruginosa [8]; 67.4% in the data set on Pseudomonas aeruginosa [10]; 31.2% in the data set with Pseudomonas aeruginosa [14]; 99% in the data set on Pseudomonas aeruginosa [22]. Also, in data set [3], the concentration at 4 h was 1700 ng/mL. Further, the inhibition at 4 µg/mL in the data set on Pseudomonas aeruginosa [4] stood at 15%; in the data set on Pseudomonas aeruginosa [7] it was 45%; in the data set with Pseudomonas aeruginosa [11], 56%; in the data set on Pseudomonas aeruginosa [13] it was 32%. Moreover, the outcome in the data set with Pseudomonas aeruginosa [9] was Active. Moreover, the values for the inhibition at 2 µg/mL in the data set on Pseudomonas aeruginosa [15] and in the data set on Pseudomonas aeruginosa [21] were 63% and 43%, respectively. For the same compound, the “beta t1/2” value in the data set filed under Mus musculus is 44 min. The compound also yielded an MIC against Pseudomonas aeruginosa [16] above 256 µg/mL. The inhibition at 8 µg/mL is 51% in the data set with Pseudomonas aeruginosa [18] and 16% in the data set on Pseudomonas aeruginosa [23]. The concentration at 1 h in data set [19] is 2900 ng/mL.
